The source of these data is article PMC5090035, “A Class 1 Histone Deacetylase with Potential as an Antifungal Target” (mBio, 2016).

The target in assay [1] is T1, RpdA (TAP-tagged wild-type RpdA) (Aspergillus nidulans, UniProt G5EB64).
T1 construct: gene ANIA_04493; full-length, C12 motif present; TAP-tagged, expressed under xylPp in A. nidulans, IgG Sepharose, eluted by TEV cleavage (CBP part kept)
In words: HDAC assay, release of [3H]acetate from prelabeled histones. The format is biochemical. As to conditions: read-out: % inhibition at 50 nM.

Assay [2] has as its target T1, RpdA (TAP-tagged wild-type RpdA). The description is as above. The assay is classed as biochemical. To be noted: [3H]acetate-prelabeled chicken reticulocyte histones as substrate; 1 h, 25 C; inhibitor at 50 and 500 nM.

T1 sequence (G5EB64 1-687): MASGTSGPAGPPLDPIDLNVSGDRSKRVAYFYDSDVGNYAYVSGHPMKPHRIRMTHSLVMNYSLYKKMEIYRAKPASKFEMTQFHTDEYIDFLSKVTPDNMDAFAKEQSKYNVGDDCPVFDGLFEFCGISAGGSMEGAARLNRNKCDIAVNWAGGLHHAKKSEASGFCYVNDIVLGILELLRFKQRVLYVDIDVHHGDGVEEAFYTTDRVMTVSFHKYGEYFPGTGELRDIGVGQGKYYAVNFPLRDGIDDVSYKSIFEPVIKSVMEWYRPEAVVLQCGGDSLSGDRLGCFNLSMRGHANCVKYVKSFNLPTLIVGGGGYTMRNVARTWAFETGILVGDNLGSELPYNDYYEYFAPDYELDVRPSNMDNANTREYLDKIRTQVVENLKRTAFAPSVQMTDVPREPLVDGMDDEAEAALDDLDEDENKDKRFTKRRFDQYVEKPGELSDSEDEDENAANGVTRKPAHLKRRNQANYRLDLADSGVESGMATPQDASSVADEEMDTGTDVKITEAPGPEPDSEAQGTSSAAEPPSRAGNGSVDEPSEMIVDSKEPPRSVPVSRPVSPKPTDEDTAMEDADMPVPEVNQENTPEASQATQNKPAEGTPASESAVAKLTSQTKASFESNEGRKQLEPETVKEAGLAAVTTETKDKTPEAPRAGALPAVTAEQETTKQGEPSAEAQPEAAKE

A word on the inhibition: it is the percentage by which the read-out fell short of the control. With `CC(/C=C/C(=O)NO)=C\[C@@H](C)C(=O)c1ccc(N(C)C)cc1` [trichostatin A], the inhibition at 0.05 µM in assay [1] was 70%.

Turning to `O=C(CCCCCCC(=O)Nc1ccccc1)NO` [vorinostat], the “% inhibition at 50 and 500 nM” value in assay [2] was “SAHA showed only weak inhibition of RpdA”.
